Assay results published in PubChem BioAssay (NCI).
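Results reflect a 48-hour exposure of cells in 96-well plates to compound at five concentrations. The concentration for 50% growth inhibition is given as GI50. TGI: total growth inhibition.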

How the values were obtained:
Test in all cases: NCI-60 cell line screen, 48 h
[1] = tested on: A549 NSCLC
[2] = tested on: CCRF-CEM leukemia
[3] = tested on: DU-145 prostate
[4] = tested on: EKVX NSCLC
[5] = tested on: HCT-116 colon
[6] = tested on: K-562 leukemia
[7] = tested on: MDA-MB-435
[8] = tested on: NCI-H226 lung
[9] = tested on: NCI-H460 lung
[10] = tested on: SK-OV-3 ovarian
[11] = tested on: RXF 393 renal

Structure (SMILES)	TGI [1]	TGI [2]	TGI [3]	TGI [4]	TGI [5]	TGI [6]	TGI [7]	TGI [8]	TGI [9]	TGI [10]	TGI [11]	GI50 [2]	GI50 [6]	GI50 [9]	GI50 [11]
Nc1nc(NNc2cccc(F)c2)cc(=O)[nH]1	> 100 µM	> 100 µM	> 100 µM	> 100 µM	61.2 µM	74 µM	64.9 µM	> 100 µM	> 100 µM						
CC1(C)OP(=O)(c2ccccc2)C=C1Sc1ccc([N+](=O)[O-])cc1[N+](=O)[O-] (configuration not stated)	> 100 µM		> 100 µM	> 100 µM	> 100 µM	67.3 µM	> 100 µM	> 100 µM	> 100 µM	> 100 µM					
Cc1cc2ncn(-c3nc4ccccc4nc3C(C#N)S(C)(=O)=O)c2cc1C (configuration not stated)	> 100 µM	> 100 µM		> 100 µM	> 100 µM	> 100 µM		> 100 µM	> 100 µM	> 100 µM					
CSc1ncnc2c1cnn2Cc1cnnn1COCC(O)CO (configuration not stated)	> 100 µM	> 100 µM	> 100 µM	> 100 µM	> 100 µM	> 100 µM	> 100 µM	> 100 µM		> 100 µM					
COCC(C)(C)N=CN1Cc2cc3ccccc3nc2C1	> 100 µM	> 100 µM		> 100 µM	> 100 µM	> 100 µM		> 100 µM	> 100 µM	> 100 µM	> 100 µM				
Clc1ccc(Nc2nnc(CNc3ccc(-c4nnc(Nc5ccc(Cl)cc5)s4)cc3)s2)cc1	> 100 µM		> 100 µM	> 100 µM	30.8 µM	> 100 µM	> 100 µM	> 100 µM	> 100 µM	> 100 µM	> 100 µM				
O=[N+]([O-])c1ccc(SN=S=NSc2cccc(SN=S=NSc3ccc([N+](=O)[O-])cc3)c2)cc1	> 100 µM	42.5 µM		> 100 µM	> 100 µM	> 100 µM	71.2 µM		> 100 µM	> 100 µM					
O=C(CNc1ccccn1)Nn1cnc2ccc(S(=O)(=O)Nc3ccccn3)cc2c1=O	> 100 µM	> 100 µM	> 100 µM	> 100 µM	> 100 µM	> 100 µM	> 100 µM	> 100 µM	> 100 µM	> 100 µM					
CC(=O)Nc1[nH]n(C)c(=O)c1-c1nnc(C)s1	> 100 µM	> 100 µM		> 100 µM	> 100 µM	> 100 µM		> 100 µM	> 100 µM	> 100 µM	> 100 µM				
CC1(C)OC(=O)C(C)(C)C(=O)O1	> 100 µM	> 100 µM	> 100 µM	> 100 µM	> 100 µM	> 100 µM		> 100 µM	> 100 µM	> 100 µM					
COc1ccc(Nc2nc3ccccc3n3cccc23)cc1OC	43.6 µM	15.2 µM	35.6 µM	68.5 µM	36.4 µM	> 100 µM	26.7 µM		27.5 µM	63.5 µM	33.1 µM				
CC(C)(C)N=CN1C=Cc2nc3ccccc3cc2C1	> 100 µM	> 100 µM		> 100 µM	> 100 µM	> 100 µM			> 100 µM	> 100 µM	> 100 µM				
O=C1[C@@H]2C(c3ccc(Br)cc3)=NO[C@@H]2C(=O)N1c1ccc(Cc2ccc(N3C(=O)[C@H]4C(c5ccc(Br)cc5)=NO[C@H]4C3=O)cc2)cc1	> 3.48 µM	> 40 µM		> 3.48 µM	> 40 µM	> 40 µM			> 40 µM	> 3.48 µM	> 40 µM	> 40 µM	> 40 µM	> 40 µM	> 40 µM
COC(=O)C(=O)C(C(=O)OC)C(=O)C(=O)Nc1c(C)cccc1C (configuration not stated)	> 100 µM	> 100 µM		> 100 µM	> 100 µM	> 100 µM		> 100 µM	> 100 µM	> 100 µM	> 100 µM				
COc1cc2ccc3c4ccccc4cnc3c2cc1OC	> 100 µM	> 100 µM		> 100 µM	> 100 µM	> 100 µM		> 100 µM	> 100 µM	> 100 µM	> 100 µM				
CCOC1OC(CO)C(O)CC1n1ccc(=O)[nH]c1=O (configuration not stated)	> 100 µM		> 100 µM	> 100 µM	> 100 µM	> 100 µM	> 100 µM	> 100 µM	> 100 µM		> 100 µM				
CCOc1ccccc1N=Nc1ccc2oc(=O)c(C(C)=O)cc2c1	> 100 µM	> 100 µM		> 100 µM	> 100 µM	> 100 µM				> 100 µM					
Nc1nc2c(N)cc(C(F)(F)F)cc2nc1-c1ccccc1	> 100 µM	> 100 µM		> 100 µM	> 100 µM	> 100 µM		> 100 µM	> 100 µM	> 100 µM	> 100 µM				
O=C(NCCN1CCCCC1)c1ccc(Br)cc1	> 100 µM		> 100 µM	> 100 µM	> 100 µM	> 100 µM	> 100 µM		> 100 µM	> 100 µM	> 100 µM				
CC(C)[C@@H]1CC[C@@H](C)C[C@H]1OC(=O)c1c2n(c3ccccc13)C[C@H]1OC(C)(C)O[C@@H]21	> 100 µM	> 100 µM	> 100 µM	73.8 µM	> 100 µM	> 100 µM	> 100 µM	> 100 µM		> 100 µM	82.9 µM				
O=Cc1c[nH]c2c(=O)[nH]cnc12	> 100 µM	> 100 µM		> 100 µM	> 100 µM	> 100 µM				> 100 µM	> 100 µM				
CC(C)N(C(=O)C12C3C4C1C1C2C3C41C#N)C(C)C (configuration not stated)	> 100 µM	> 85.1 µM		> 100 µM	> 100 µM	> 100 µM		> 100 µM	> 100 µM	> 100 µM	> 100 µM				
CC1=CC2C(C=C1)S(=O)(=O)N1CC21c1ccccc1 (configuration not stated)	> 100 µM	> 100 µM			> 100 µM	> 100 µM			> 100 µM	> 100 µM					
O=C(Cc1ccccc1)NN1C(=O)C(Cl)C1c1ccccc1Cl (configuration not stated)	> 100 µM	55.8 µM		> 100 µM	> 100 µM	> 100 µM		> 100 µM	> 100 µM	> 100 µM	> 100 µM				
